Assay results: ChEMBL document CHEMBL5625225, “Vinylphosphonate-based cyclic dinucleotides enhance STING-mediated cancer immunotherapy” (Eur J Med Chem, 2023)

Assays:
[1] = target: T1, Stimulator of interferon genes protein (Homo sapiens, UniProt Q86WV6); assay: Agonist activity at wild type STING (unknown origin) expressed in HEK293T cells preincubated for 30 mins followed by washout and measured after 6.5 hrs by Bright-glo luciferase assay; assay type: cell-based
Target sequence in this assay (Q86WV6 whole entry): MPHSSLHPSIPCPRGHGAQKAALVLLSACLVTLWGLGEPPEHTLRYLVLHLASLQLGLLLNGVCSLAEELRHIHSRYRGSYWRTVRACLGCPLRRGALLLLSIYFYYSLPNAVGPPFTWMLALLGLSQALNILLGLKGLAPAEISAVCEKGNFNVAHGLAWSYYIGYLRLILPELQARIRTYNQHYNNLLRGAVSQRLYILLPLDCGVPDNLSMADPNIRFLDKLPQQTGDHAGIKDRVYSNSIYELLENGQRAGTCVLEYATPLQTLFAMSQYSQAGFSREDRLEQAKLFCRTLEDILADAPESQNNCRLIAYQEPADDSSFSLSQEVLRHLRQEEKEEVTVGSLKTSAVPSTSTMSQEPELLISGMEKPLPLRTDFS

[2] = target: T1, Stimulator of interferon genes protein; assay: Agonist activity at wild type STING (unknown origin) expressed in HEK293T cells measured after 7 hrs by Bright-glo luciferase assay; assay type: cell-based
Target sequence in this assay (Q86WV6 whole entry): as above

[3] = target: T1, Stimulator of interferon genes protein; assay: Agonist activity at STING R232 mutant (unknown origin) expressed in digitonin -permeabilized HEK293T cells preincubated for 30 mins followed by washout and measured after 5 hrs by Bright-glo luciferase assay; assay type: cell-based
Target sequence in this assay (Q86WV6 whole entry, looked up, stated change not applied): as the sequence (Q86WV6 whole entry) above

[4] = target: Stimulator of interferon genes protein (Homo sapiens, UniProt Q86WV6, G230A/R293Q/R71H); assay: Agonist activity at STING R71H/G230A/R293Q mutant (unknown origin) expressed in digitonin -permeabilized HEK293T cells preincubated for 30 mins followed by washout and measured after 5 hrs by Bright-glo luciferase assay; assay type: cell-based
[5] = Agonist activity at STING R232H mutant (unknown origin) expressed in digitonin -permeabilized HEK293T cells preincubated for 30 mins followed by washout and measured after 5 hrs by Bright-glo luciferase assay; assay type: cell-based; conditions: Homo sapiens, HEK-293T
[6] = target: Stimulator of interferon genes protein (Homo sapiens, UniProt Q86WV6, G230A/R293Q); assay: Agonist activity at STING G230A/R293Q mutant (unknown origin) expressed in digitonin -permeabilized HEK293T cells preincubated for 30 mins followed by washout and measured after 5 hrs by Bright-glo luciferase assay; assay type: cell-based
[7] = target: Stimulator of interferon genes protein (Homo sapiens, UniProt Q86WV6, R293Q); assay: Agonist activity at STING R293Q mutant (unknown origin) expressed in digitonin -permeabilized HEK293T cells preincubated for 30 mins followed by washout and measured after 5 hrs by Bright-glo luciferase assay; assay type: cell-based
[8] = test system: Stimulator of interferon genes protein (Homo sapiens), Q86WV6 [UNDEFINED MUTATION]; conditions: filed as agonist
Description: Binding affinity to STING R232 mutant (unknown origin) assessed as change in melting temperature by differential scanning fluorimetry analysis

[9] = test system: Stimulator of interferon genes protein (Homo sapiens), Q86WV6 [G230A,R293Q]; conditions: filed as agonist
Description: Binding affinity to STING G230A/R293Q mutant (unknown origin) assessed as change in melting temperature by differential scanning fluorimetry analysis

[10] = Induction of cytokine production in human PBMC cells assessed as IFN-gamma level incubated for 60 mins followed by washout and measured after 15 hrs; assay type: functional, cell-based
[11] = Induction of cytokine production in human PBMC cells assessed as TNF-alpha level incubated for 60 mins followed by washout and measured after 15 hrs; assay type: functional, cell-based
[12] = Induction of cytokine production in human PBMC cells assessed as IFN-alpha level incubated for 60 mins followed by washout and measured after 15 hrs; assay type: functional, cell-based

Chain of Stimulator of interferon genes protein (Homo sapiens), Q86WV6 [UNDEFINED MUTATION] (Q86WV6 whole entry, looked up, stated change not applied): as the sequence (Q86WV6 whole entry) above
Chain of Stimulator of interferon genes protein (Homo sapiens, UniProt Q86WV6, R293Q) (Q86WV6 whole entry R293Q): as the sequence (Q86WV6 whole entry) above, with R293Q counted along it
Chain of Stimulator of interferon genes protein (Homo sapiens), Q86WV6 [G230A,R293Q] (Q86WV6 whole entry G230A/R293Q): as the sequence (Q86WV6 whole entry) above, with G230A, R293Q counted along it
Chain of Stimulator of interferon genes protein (Homo sapiens, UniProt Q86WV6, G230A/R293Q) (Q86WV6 whole entry G230A/R293Q): as the sequence (Q86WV6 whole entry) above, with G230A, R293Q counted along it
Chain of Stimulator of interferon genes protein (Homo sapiens, UniProt Q86WV6, G230A/R293Q/R71H) (Q86WV6 whole entry R71H/G230A/R293Q): as the sequence (Q86WV6 whole entry) above, with R71H, G230A, R293Q counted along it

EC50 [1]	EC50 [2]	EC50 [3]	EC50 [4]	EC50 [5]	EC50 [6]	EC50 [7]	ΔTm [8]	ΔTm [9]	SMILES	further results
210 nM	260 nM								CC(C)(C)C(=O)OCOP1(=O)/C=C/[C@H]2O[C@@H](n3cnc4c(N)ncnc43)C[C@@H]2OP(=O)(OCOC(=O)C(C)(C)C)OC[C@H]2O[C@@H](n3cnc4c(N)ncnc43)[C@H](F)[C@@H]2O1 (stereo in doubt; 24C)	
35 nM	14 nM								CCC(C)(C)C(=O)OCOP1(=O)/C=C/[C@H]2O[C@@H](n3cnc4c(N)ncnc43)[C@H](F)[C@@H]2OP(=O)(OCOC(=O)C(C)(C)CC)OC[C@H]2O[C@@H](n3cnc4c(N)ncnc43)[C@H](F)[C@@H]2O1 (stereo in doubt; 13B)	
2630 nM	1250 nM								CC(C)OC(=O)OCOP1(=O)/C=C/[C@H]2O[C@@H](n3cnc4c(N)ncnc43)[C@H](F)[C@@H]2OP(=O)(OCOC(=O)OC(C)C)OC[C@H]2O[C@@H](n3cnc4c(N)ncnc43)[C@H](F)[C@@H]2O1 (stereo in doubt; 12B)	
9930 nM	12100 nM								CC(C)(C)C(=O)OCOP1(=O)/C=C/[C@H]2O[C@@H](n3cnc4c(N)ncnc43)C[C@@H]2OP(=O)(OCOC(=O)C(C)(C)C)OC[C@H]2O[C@@H](n3cnc4c(N)ncnc43)[C@H](F)[C@@H]2O1 (stereo in doubt; 24A)	
450 nM	150 nM								CCC(C)(C)C(=O)OCOP1(=O)/C=C/[C@H]2O[C@@H](n3cnc4c(N)ncnc43)[C@H](F)[C@@H]2OP(=O)(OCOC(=O)C(C)(C)CC)OC[C@H]2O[C@@H](n3cnc4c(N)ncnc43)[C@H](F)[C@@H]2O1 (stereo in doubt; 13A)	
7950 nM	9500 nM								CC(C)OC(=O)OCOP1(=O)/C=C/[C@H]2O[C@@H](n3cnc4c(N)ncnc43)[C@H](F)[C@@H]2OP(=O)(OCOC(=O)OC(C)C)OC[C@H]2O[C@@H](n3cnc4c(N)ncnc43)[C@H](F)[C@@H]2O1 (stereo in doubt; 12A)	
30 nM	22 nM								CC(C)(C)C(=O)OCOP1(=O)/C=C/[C@H]2O[C@@H](n3cnc4c(N)ncnc43)[C@H](F)[C@@H]2OP(=O)(OCOC(=O)C(C)(C)C)OC[C@H]2O[C@@H](n3cnc4c(N)ncnc43)[C@H](F)[C@@H]2O1 (stereo in doubt; 11B)	EC50 ([10]; pbmc): 750 nM; EC50 ([11]; pbmc): 330 nM; EC50 ([12]; pbmc): 350 nM
250 nM	70 nM								CC(C)OC(=O)OCOP1(=O)/C=C/[C@H]2O[C@@H](n3cnc4c(N)ncnc43)[C@H](F)[C@@H]2OP(=O)(OCOC(=O)OC(C)C)OC[C@H]2O[C@@H](n3cnc4c(N)ncnc43)[C@H](F)[C@@H]2O1 (stereo in doubt; 12C)	EC50 ([10]; Homo sapiens, PBMC): 1300 nM; EC50 ([11]; Homo sapiens, PBMC): 250 nM; EC50 ([12]; Homo sapiens, PBMC): 600 nM
550 nM	675 nM								CC(C)(C)C(=O)OCOP1(=O)/C=C/[C@H]2O[C@@H](n3cnc4c(N)ncnc43)C[C@@H]2OP(=O)(OCOC(=O)C(C)(C)C)OC[C@H]2O[C@@H](n3cnc4c(N)ncnc43)[C@H](F)[C@@H]2O1 (stereo in doubt; 24B)	
130 nM	60 nM								CC(C)(C)C(=O)OCOP1(=O)/C=C/[C@H]2O[C@@H](n3cnc4c(N)ncnc43)[C@H](F)[C@@H]2OP(=O)(OCOC(=O)C(C)(C)C)OC[C@H]2O[C@@H](n3cnc4c(N)ncnc43)[C@H](F)[C@@H]2O1 (stereo in doubt; 11A)	

Further lines, the compound ahead of its results:

SMILES	EC50 [1]	EC50 [2]	EC50 [3]	EC50 [4]	EC50 [5]	EC50 [6]	EC50 [7]	ΔTm [8]	ΔTm [9]	further results
Nc1ncnc2c1ncn2[C@@H]1O[C@@H]2/C=C/P(=O)(O)O[C@H]3C[C@H](n4cnc5c(N)ncnc54)O[C@@H]3COP(=O)(O)O[C@H]2[C@H]1F	> 200000 nM	71700 nM	280 nM	270 nM	> 45000 nM	390 nM	1500 nM	2.7 °C	8.9 °C	
Nc1nc2c(ncn2[C@@H]2O[C@@H]3COP(=O)(O)O[C@H]4C[C@H](n5cnc6c(N)ncnc65)O[C@@H]4/C=C/P(=O)(O)O[C@H]3[C@H]2F)c(=O)[nH]1			700 nM	350 nM	25500 nM	290 nM	4150 nM	4.8 °C	11.9 °C	
Nc1ncnc2c1ncn2[C@@H]1O[C@@H]2COP(=O)(O)O[C@H]3C[C@H](n4cnc5c(N)ncnc54)O[C@@H]3/C=C/P(=O)(O)O[C@H]2[C@H]1F			750 nM	280 nM	> 45000 nM	400 nM	6570 nM	2.3 °C	8.2 °C	
Nc1nc2c(ncn2[C@H]2C[C@@H]3OP(=O)(O)/C=C/[C@H]4O[C@@H](n5cnc6c(N)ncnc65)[C@H](F)[C@@H]4OP(=O)(O)OC[C@H]3O2)c(=O)[nH]1			120 nM	140 nM	9500 nM	130 nM	2950 nM	5.2 °C	11.4 °C	
CC1(C(=O)OCOP2(=O)/C=C/[C@H]3O[C@@H](n4cnc5c(N)ncnc54)[C@H](F)[C@@H]3OP(=O)(OCOC(=O)C3(C)CCCCC3)OC[C@H]3O[C@@H](n4cnc5c(N)ncnc54)[C@H](F)[C@@H]3O2)CCCCC1 (stereo in doubt; 14A)	500 nM	250 nM								
Nc1nc2c(ncn2[C@H]2C[C@@H]3OP(=O)(O)/C=C/[C@H]4O[C@@H](n5cnc6c(N)ncnc65)C[C@@H]4OP(=O)(O)OC[C@H]3O2)c(=O)[nH]1			10800 nM	240 nM	> 45000 nM	390 nM	> 45000 nM	0.9 °C	4.5 °C	
Nc1nc2c(ncn2[C@H]2C[C@@H]3OP(=O)(O)OC[C@H]4O[C@@H](n5cnc6c(N)ncnc65)C[C@@H]4OP(=O)(O)/C=C/[C@H]3O2)c(=O)[nH]1			780 nM	440 nM	> 45000 nM	210 nM	> 45000 nM	1.9 °C	8.6 °C	
Nc1nc2c(ncn2[C@@H]2O[C@@H]3/C=C/P(=O)(O)O[C@H]4[C@@H](F)[C@H](n5cnc6c(N)ncnc65)O[C@@H]4COP(=O)(O)O[C@H]3[C@H]2F)c(=O)[nH]1			20 nM	60 nM	320 nM	80 nM	460 nM	9.4 °C	15.2 °C	
Nc1nc2c(ncn2[C@@H]2O[C@@H]3/C=C/P(=O)(O)O[C@H]4[C@@H](F)[C@H](n5cnc6c(=O)[nH]c(N)nc65)O[C@@H]4COP(=O)(O)O[C@H]3[C@H]2F)c(=O)[nH]1			500 nM	950 nM	3690 nM	950 nM	8650 nM	3.4 °C	8.8 °C	
CCCCCCCC(=O)OCOP1(=O)/C=C/[C@H]2O[C@@H](n3cnc4c(N)ncnc43)[C@H](F)[C@@H]2OP(=O)(OCOC(=O)CCCCCCC)OC[C@H]2O[C@@H](n3cnc4c(N)ncnc43)[C@H](F)[C@@H]2O1 (stereo in doubt; 15A)	350 nM	20 nM								
CC1(C(=O)OCOP2(=O)/C=C/[C@H]3O[C@@H](n4cnc5c(N)ncnc54)[C@H](F)[C@@H]3OP(=O)(OCOC(=O)C3(C)CCCCC3)OC[C@H]3O[C@@H](n4cnc5c(N)ncnc54)[C@H](F)[C@@H]3O2)CCCCC1 (stereo in doubt; 14B)	225 nM	80 nM								EC50 ([10]; pbmc): 250 nM; EC50 ([11]; pbmc): 140 nM; EC50 ([12]; pbmc): 300 nM
CCCCCCCC(=O)OCOP1(=O)/C=C/[C@H]2O[C@@H](n3cnc4c(N)ncnc43)[C@H](F)[C@@H]2OP(=O)(OCOC(=O)CCCCCCC)OC[C@H]2O[C@@H](n3cnc4c(N)ncnc43)[C@H](F)[C@@H]2O1 (stereo in doubt; 15B)	4 nM	3 nM								EC50 ([10]; pbmc): 60 nM; EC50 ([11]; pbmc): 70 nM; EC50 ([12]; Homo sapiens, PBMC): 80 nM
